From ChEMBL document CHEMBL1134516, “Probing the interaction of dengue virus envelope protein with heparin: assessment of glycosaminoglycan-derived inhibitors” (J Med Chem, 2001)

Test system: Dengue virus
Experiment: Dissociation constant for Dengue virus envelope protein binding by surface plasmon resonance
Assay type: functional

SMILES: Cc1ccc(C(=O)Nc2ccc(S(=O)(=O)O)c3cc(S(=O)(=O)O)cc(S(=O)(=O)O)c23)cc1NC(=O)c1cccc(NC(=O)Nc2cccc(C(=O)Nc3cc(C(=O)Nc4ccc(S(=O)(=O)O)c5cc(S(=O)(=O)O)cc(S(=O)(=O)O)c45)ccc3C)c2)c1 [SURAMIN]
- Kd: 40 nM
